“Also recorded” adds a separate entry of the source.
System: ArBNR1
Assay: Luminescence (GFP-aequorin Ca2+) assay, CHO-K1 cells coexpressing ArBNR1 and Gqs5
Type: cell-based, Asterias rubens
Conditions: ArBNR1, words
Experimental: Having investigated relationships of eleven A. rubens BN-type receptor candidates (ArBNR1-11) with BN-type, ET-type, and CCHa/EP-type receptors in other taxa, ArBNR1 was identified as the best candidate and therefore this was selected for experimental testing. However, two other receptors (ArBNR2 and ArBNR3) were also tested. The methods employed for functional characterization of A. rubens neuropeptide receptors have been described previously ([57]) and a description of the methods employed in this study is included in SI Appendix, SI Methods. […]
As a complement to use of CLANS, phylogenetic trees were generated with the maximum-likelihood method (1000 bootstrap replicates) using One Step Build a ML Tree plugin in TBtools (12), specifying orexin-type receptors as an outgroup. […] Tree_B analysed the branch of tree_A containing ArBNR1; tree_C analysed the branch of tree_A containing ArBNR2; tree_D analysed the branch of tree_A containing ArBNR3; tree_E analysed the branch of tree_A containing ArBNR4, ArBNR5 and ArBNR6; tree_F analysed the branch of tree_A containing ArBNR7; tree_G analysed the branch of tree_A containing ArBNR8; tree_H analysed the branch of tree_A containing ArBNR9 and tree_I analysed the branch of tree_A containing ArBNR10 and ArBNR11. […]
identical to residues 18 - 270 of the protein XP_033631283.1, which was determined from genome […]

Q: How did the peptide-induced luminescence turn out when “EPMPSSLALYIANLSP-NH2 [ArBNP65-81, C-terminally amidated 16-residue peptide predicted to be derived from residues 65 to 81 of ArBNP]” was run?
A: did not trigger luminescence; also recorded: peptide-induced luminescence was only observed with ArBN5-14
